Among the data in ChEMBL document CHEMBL4196204, “Sulfonic Acid-Containing Flavonoids from the Roots of Phyllanthus acidus” (J Nat Prod, 2018) are Activity values, retold here.

One test deals with HepG2. Nature of the test: Antiproliferative activity against human HepG2 cells by MTT assay. In kind it is functional, cell-based.
Another test has as its system MCF7. The test is described as follows: Antiproliferative activity against human MCF7 cells by MTT assay. In kind it is functional, cell-based.

Activity calls are given as the source filed them. The rule behind the calls is not given here.

For `COc1c(O)c2c(c(S(=O)(=O)O)c1O)OC(c1ccc(O)cc1)CC2=O` (racemic), the result in the test on HepG2 and in the test with MCF7 was inactive.
